Legend:
Assay type in all cases: in vivo
[1] = Sensory evaluation, intensity of saltiness in aqueous NaCl solution; conditions: 10 ppm added to 0.8% NaCl; additive-free = 3.0; 1.0 much weaker to 5.0 much stronger
Description: (§1) All sensory evaluation of taste was performed by individuals wearing a nose clip. The evaluation was performed by groups of three individuals, and the scores were averaged.
(§2) To a 0.2% aqueous sodium glutamate (MSG) solution (=umami), a 0.8% aqueous salt (NaCl) solution (=saltiness) and a 2% aqueous sucrose solution (=sweetness) were added 10 ppm linear aliphatic aldehydes having 3-12 carbon atoms shown in Table 1, respectively. Sensory evaluation was performed in which intensity of taste sensed when each of the aqueous solutions is introduced into the mouth is defined as “Intensity of umami” for the aqueous MSG solution, “Intensity of saltiness” for the aqueous NaCl solution and “Intensity of sweetness” for the aqueous sucrose solution. The score of aldehyde-free taste intensity was set to 3.0, and taste intensity upon addition of aldehyde was evaluated as follows. The results are shown in Table 1. • 1.0: Much weaker • 2.0: Weaker • 3.0: Similar • 4.0: Stronger • 5.0: Much Stronger
(§3) To a 0.2% aqueous sodium glutamate (MSG) solution (=umami), a 0.8% aqueous salt (NaCl) solution (=saltiness), a 2% aqueous sucrose solution (=sweetness) were added 10 ppm linear aliphatic alcohols having 2-11 carbon atoms, respectively. Sensory evaluation was performed in which intensity of taste sensed when each of the aqueous solutions is introduced into the mouth is defined as “Intensity of umami” for the aqueous MSG solution, “Intensity of saltiness” for the aqueous NaCl solution and “Intensity of sweetness” for the aqueous sucrose solution. The score of alcohol-free taste intensity was set to 3.0, and taste intensity upon addition was evaluated as follows. The results are shown in Table 3. • 1.0: Much weaker • 2.0: Weaker • 3.0: Similar • 4.0: Stronger • 5.0: Much stronger
(§4) To a 0.2% aqueous sodium glutamate (MSG) solution (=umami), a 0.8% aqueous salt (NaCl) solution (=saltiness), a 2% aqueous sucrose solution (=sweetness) were added 1 ppm n-hexanal and 1ppm 1-octene-3-ol each, respectively. Sensory evaluation was performed in which the intensity of taste sensed when each of the aqueous solutions is introduced into the mouth is defined as “Intensity of umami” for the aqueous MSG solution, “Intensity of saltiness” for the aqueous NaCl solution and “Intensity of sweetness” for the aqueous sucrose solution. The score of additive-free taste intensity was set to 3.0, and taste intensity upon addition was evaluated as follows. The results are shown in Table 9. • 1.0: Much weaker • 2.0: Weaker • 3.0: Similar • 4.0: Stronger • 5.0: Much stronger

[2] = Sensory evaluation, intensity of umami in aqueous MSG solution; conditions: 10 ppm added to 0.2% MSG; additive-free = 3.0; 1.0 much weaker to 5.0 much stronger; mean of three individuals, nose clip
Description: as §1, §2, §3, §4

[3] = Sensory evaluation, intensity of sweetness in aqueous sucrose solution; conditions: 10 ppm added to 2% sucrose; additive-free = 3.0; 1.0 much weaker to 5.0 much stronger
Description: as §1, §2, §3, §4

Row | Structure (SMILES) | Intensity of saltiness, Aqueous NaCl solution [1] | Intensity of umami, Aqueous MSG solution [2] | Intensity of sweetness, Aqueous sucrose solution [3]
1 | C=CC(O)CCCCCCC (stereo not drawn) [1-decene-3-ol] | 3.2 | 3.2 | 3.5
2 | C=CC(O)CCC (stereo not drawn) [1-hexene-3-ol] | 3.2 | 3.2 | 3.5
3 | CCCCCC=CC=CC=O [2,4-decadienal] | 3.5 | 3.5 | 3.5
4 | C=CCCCC=CCO [2,7-octadienol] | 3.2 | 3.2 | 3.5
5 | CCCCO [Example 1-butanol, 1-butanol] | 3.2 | 3.2 | 3.2
6 | C=CC(C)O (stereo not drawn) [Example 1-buten-3-ol, 1-buten-3-ol] | 3.2 | 3.2 | 3.5
7 | CCCCCCCCCCO [Example 1-decanol, 1-decanol] | 3.2 | 3.2 | 3.2
8 | CCCCCCCO [Example 1-heptanol, 1-heptanol] | 3.2 | 3.2 | 3.2
9 | CCCCCCO [Example 1-hexanol, 1-hexanol] | 3.2 | 3.2 | 3.2
10 | CCCCCCCCCO [Example 1-nonanol, 1-nonanol] | 3.2 | 3.2 | 3.2
11 | CCCCCCCCO [Example 1-octanol, 1-octanol] | 3.2 | 3.2 | 3.2
12 | CCCCCO [Example 1-pentanol, 1-pentanol] | 3.2 | 3.2 | 3.2
13 | CCCCCCCCCCCO [Example 1-undecanol, 1-undecanol, reference compound] | 3.0 | 3.0 | 3.0
14 | CCCC=CC=O [Example 2-hexenal, 2-hexenal] | 3.8 | 3.8 | 3.8
15 | CCO [ethanol, reference compound] | 3.0 | 3.0 | 3.0
16 | CCCCCCCCCCCC=O [n-dodecanal, reference compound] | 3.0 | 3.0 | 3.0
17 | CCCCCCCCCCC=O [n-undecanal, reference compound] | 3.0 | 3.0 | 3.0

— patent publication US20120177797A1, “TASTE ENHANCING AGENT” (J-OIL MILLS, INC., priority 2009, published 2012)
